Data reported in PMC12722308, “A phase 1 study of orally administered 5-fluoro-2’-deoxycytidine with tetrahydrouridine in patients with refractory solid tumors” (Cancer Chemotherapy and Pharmacology, 2025).
Values joined by “and” are separate entries in the source; they are usually repeats but may differ in a detail not shown here. Equal entries are not always repeated. Where two headings read alike, the source gives them in different places. Marks after values point to notes of the source that are not given here.

Key:
[1] = Phase 1 dose escalation: adverse events (CTCAE v4.0), DLT, MTD/RP2D; type: in vivo, human; details: orally once daily with 3000 mg THU on days 1–6 and 8–13 of each 21-day cycle (dose level 8)
Experimental: FdCyd and THU were supplied by the NCI Division of Cancer Treatment and Diagnosis. Patients were administered both drugs orally in 21-day cycles, and dose escalation proceeded according to a traditional 3 + 3 design as per the dose escalation schema shown in Supplementary Table S1. […] Patients maintained a study diary to note any side effects or concurrent medications. The NCI Common Terminology Criteria for Adverse Events version 4.0 was used to grade adverse events. Tumor response was assessed by radiography at baseline and every 2 cycles thereafter and evaluated per RECIST version 1.1 [11]. Following determination of the maximum tolerated dose (MTD)/recommended phase 2 dose (RP2D), an additional 13 patients were enrolled on a RP2D expansion cohort for assessments of pharmacodynamic biomarkers in baseline and on-treatment tumor biopsies.
DLTs were defined as toxicities that were at least possibly related to FdCyd or THU within the first cycle of treatment and met one of the following criteria: grade ≥ 3 non-hematological toxicity (including grade 3 nausea, vomiting, or diarrhea only if refractory to standard supportive care; grade 3 electrolyte toxicities only if unable to be corrected to ≤ grade 1 within 24 h; and tumor pain only if refractory to analgesics); grade 4 thrombocytopenia; or grade 4 neutropenia lasting ≥ 5 days or febrile neutropenia. […]

[2] = Plasma pharmacokinetics by LC-MS/MS; type: in vivo, human; details: for Tmax: read-out: FdCyd Tmax; for Vd/F: read-out: FdCyd Vz/F; for half-life: read-out: FdCyd t½ (converted); for AUC(0-inf): read-out: FdCyd AUC0-inf; for Cmax: read-out: FdCyd Cmax; for FdCyd2h-D2: day 2; for FdCyd2h-D3: day 3
Experimental: Blood specimens for PK analysis were collected on Cycle 1 Day 1 (C1D1) prior to THU administration and then at 15, 30, and 45 min and 1, 2, 3, 4, 5, and 6 h after THU administration, as well as on C1D2 and C1D3 prior to and 2 h after THU administration. Urine specimens for PK analysis were collected on C1D1 prior to treatment and then at every void from 0 to 24 h after THU administration. All specimens for PK analysis were processed and analyzed by LC-MS/MS as described previously, and Phoenix WinNonlin software was used for data analysis.

DNA methylation = test system: DNA methylation; set-up: method as in PMID 2425957; details: preclinical data; 1 µM = 245 ng/mL; cited from earlier work
[3] = cited from earlier work
[4] = All FdCyd doses + THU 3000 mg oral (n=44), geom. mean (geom. SD)
[5] = All FdCyd doses + THU 6000 mg oral (n=11), geom. mean (geom. SD)
[6] = DL1: FdCyd 30 mg + THU 3000 mg oral (n=3), geom. mean (geom. SD)
[7] = DL2: FdCyd 60 mg + THU 3000 mg oral (n=4), geom. mean (geom. SD)
[8] = DL3: FdCyd 90 mg + THU 3000 mg oral (n=3), geom. mean (geom. SD)
[9] = DL4: FdCyd 120 mg + THU 3000 mg oral (n=3), geom. mean (geom. SD)
[10] = DL5-9: FdCyd 160 mg + THU 3000 mg oral (n=31), geom. mean (geom. SD)
[11] = DL10: FdCyd 60 mg + THU 6000 mg oral (n=8), geom. mean (geom. SD)
[12] = DL11: FdCyd 80 mg + THU 6000 mg oral (n=3), geom. mean (geom. SD)
[13] = Total, all dose levels (n=55), geom. mean (geom. SD)
[14] = human, plasma, oral, Total, all dose levels (n=55), geom. mean (geom. SD)
[15] = human, plasma, po, All FdCyd doses + THU 3000 mg oral (n=44), geom. mean (geom. SD)
[16] = human, plasma, po, All FdCyd doses + THU 6000 mg oral (n=11), geom. mean (geom. SD)
[17] = human, plasma, po, DL1: FdCyd 30 mg + THU 3000 mg oral (n=3), geom. mean (geom. SD)
[18] = human, plasma, po, DL2: FdCyd 60 mg + THU 3000 mg oral (n=4), geom. mean (geom. SD)
[19] = human, plasma, po, DL3: FdCyd 90 mg + THU 3000 mg oral (n=3), geom. mean (geom. SD)
[20] = human, plasma, po, DL4: FdCyd 120 mg + THU 3000 mg oral (n=3), geom. mean (geom. SD)
[21] = human, plasma, po, DL5-9: FdCyd 160 mg + THU 3000 mg oral (n=31), geom. mean (geom. SD)
[22] = human, plasma, po, DL10: FdCyd 60 mg + THU 6000 mg oral (n=8), geom. mean (geom. SD)
[23] = human, plasma, po, DL11: FdCyd 80 mg + THU 6000 mg oral (n=3), geom. mean (geom. SD)
[24] = plasma FdCyd at 2 h, DL1: FdCyd 30 mg + THU 3000 mg oral (n=3), geom. mean (geom. SD)
[25] = plasma FdCyd at 2 h, DL2: FdCyd 60 mg + THU 3000 mg oral (n=4), geom. mean (geom. SD)
[26] = plasma FdCyd at 2 h, DL3: FdCyd 90 mg + THU 3000 mg oral (n=3), geom. mean (geom. SD)
[27] = plasma FdCyd at 2 h, DL4: FdCyd 120 mg + THU 3000 mg oral (n=3), geom. mean (geom. SD)
[28] = plasma FdCyd at 2 h, DL5-9: FdCyd 160 mg + THU 3000 mg oral (n=31), geom. mean (geom. SD)
[29] = plasma FdCyd at 2 h, DL10: FdCyd 60 mg + THU 6000 mg oral (n=8), geom. mean (geom. SD)
[30] = plasma FdCyd at 2 h, DL11: FdCyd 80 mg + THU 6000 mg oral (n=3), geom. mean (geom. SD)

## Nc1nc(=O)n([C@H]2C[C@H](O)[C@@H](CO)O2)cc1F [FdCyd, 5-fluoro-2’-deoxycytidine]
[1]
  Maximum tolerated dose / RP2D, FdCyd dose: 160 mg
[2]; [4]
  FdCyd Cl/F: 123 L/h and 123 (2.37)^c L/h
  FdCyd Cmax/Dose: 4.0 (2.2)^b µg/L / mg
[2]; [5]
  FdCyd Cl/F: 85.7 (1.65)^c L/h
  FdCyd Cmax/Dose: 6.6 (1.6)^b µg/L / mg
[2]; [6]
  FdCyd Cl/F: 212 (2.77) L/h
  FdCyd Cmax/Dose: 3.0 (2.3) µg/L / mg
[2]; [7]
  FdCyd Cl/F: 95.7 (3.08) L/h
  FdCyd Cmax/Dose: 4.9 (3.0) µg/L / mg
[2]; [8]
  FdCyd Cl/F: 84.7 (1.91) L/h
  FdCyd Cmax/Dose: 5.8 (1.8) µg/L / mg
[2]; [9]
  FdCyd AUC0-inf: 1.59 (2.43) mg/L•h
  FdCyd Cl/F: 75.6 (2.43) L/h
  FdCyd Cmax/Dose: 7.4 (2.0) µg/L / mg
[2]; [10]
  FdCyd Cl/F: 133 (2.35) L/h
  FdCyd Cmax/Dose: 3.6 (2.1) µg/L / mg
[2]; [11]
  FdCyd Cl/F: 96.0 (1.71) L/h
  FdCyd Cmax/Dose: 6.4 (1.6) µg/L / mg
[2]; [12]
  FdCyd Cl/F: 65.8 (1.41) L/h
  FdCyd Cmax/Dose: 7.1 (1.6) µg/L / mg
[2]; [13]
  FdCyd Cl/F: 115 (2.26) L/h
  FdCyd Cmax/Dose: 4.4 (2.1) µg/L / mg
[2]; comparison with ref 8
  FdCyd peak concentrations at the oral RP2D (160 mg) relative to those after the IV FdCyd RP2D of 100 mg/m^2: approximately 20%
[2]; [14]
  Tmax: ~72 min
  Vd/F: 98 L
[2]; human, plasma, oral, from previous clearance (142 mL/min/m^2) vs current Cl/F (123 L/h), read-out: FdCyd bioavailability in the current study
  bioavailability: ~12%
[2]; [15]
  Tmax: 78 min
  Vd/F: 111 L
  half-life: 36 min
[2]; [16]
  Tmax: 54 min
  Vd/F: 56 L
  half-life: 30 min
[2]; [17]
  AUC(0-inf): 140 ng·h/mL
  Cmax: 90 ng/mL
  Tmax: 54 min
  Vd/F: 187 L
  half-life: 36 min
[2]; [18]
  AUC(0-inf): 630 ng·h/mL
  Cmax: 290 ng/mL
  Tmax: 60 min
  Vd/F: 90 L
  half-life: 42 min
[2]; [19]
  AUC(0-inf): 1060 ng·h/mL
  Cmax: 530 ng/mL
  Tmax: 90 min
  Vd/F: 139 L
  half-life: 66 min
[2]; [20]
  Cmax: 890 ng/mL
  Tmax: 72 min
  Vd/F: 62 L
  half-life: 36 min
[2]; [21]
  AUC(0-inf): 1200 ng·h/mL
  Cmax: 580 ng/mL
  Tmax: 84 min
  Vd/F: 114 L
  half-life: 36 min
[2]; [22]
  AUC(0-inf): 630 ng·h/mL
  Cmax: 380 ng/mL
  Tmax: 48 min
  Vd/F: 63 L
  half-life: 30 min
[2]; [23]
  AUC(0-inf): 1220 ng·h/mL
  Cmax: 570 ng/mL
  Tmax: 90 min
  Vd/F: 44 L
  half-life: 30 min
[2]; human, plasma FdCyd at 2 h, day 1, DL10: FdCyd 60 mg + THU 6000 mg oral (n=8), geom. mean (geom. SD), read-out: FdCyd2h-D1
  concentration at 2 h: 317 ng/mL
[2]; in vivo
  Relationship between week 1 cumulative FdCyd exposure and occurrence of DLT: no statistically significant relationship
[2]; oral FdCyd with THU
  FdCyd dose from which the target Cmax of 1 µM (245 ng/mL) was reached by individual patients: ≥ 60 mg
[2]; plasma FdCyd at 2 h, day 1, DL2: FdCyd 60 mg + THU 3000 mg oral (n=4), geom. mean (geom. SD)
  FdCyd2h-D1: 0.203 (3.87) mg/L
[2]; plasma FdCyd at 2 h, day 1, DL3: FdCyd 90 mg + THU 3000 mg oral (n=3), geom. mean (geom. SD)
  FdCyd2h-D1: 0.525 (1.79) mg/L
[2]; plasma FdCyd at 2 h, day 1, DL4: FdCyd 120 mg + THU 3000 mg oral (n=3), geom. mean (geom. SD)
  FdCyd2h-D1: 0.611 (3.17) mg/L
[2]; plasma FdCyd at 2 h, day 1, DL5-9: FdCyd 160 mg + THU 3000 mg oral (n=31), geom. mean (geom. SD)
  FdCyd2h-D1: 0.505 (1.92) mg/L
[2]; plasma FdCyd at 2 h, day 1, DL11: FdCyd 80 mg + THU 6000 mg oral (n=3), geom. mean (geom. SD)
  FdCyd2h-D1: 0.571 (1.64) mg/L
[2]; [24]
  FdCyd2h-D2: 0.076 (3.80) mg/L
  FdCyd2h-D3: 0.042 (2.6) mg/L
[2]; [25]
  FdCyd2h-D2: 0.169 (3.80) mg/L
  FdCyd2h-D3: 0.145 (1.14) mg/L
[2]; [26]
  FdCyd2h-D2: 0.449 (1.55) mg/L
  FdCyd2h-D3: 0.460 (2.89) mg/L
[2]; [27]
  FdCyd2h-D2: 0.499 (9.47) mg/L
  FdCyd2h-D3: 0.891 (2.08) mg/L
[2]; [28]
  FdCyd2h-D2: 0.595 (3.29) mg/L
  FdCyd2h-D3: 0.650 (1.98) mg/L
[2]; [29]
  FdCyd2h-D2: 0.559 (1.63) mg/L
  FdCyd2h-D3: 0.584 (1.60) mg/L
[2]; [30]
  FdCyd2h-D2: 0.931 (1.99) mg/L
  FdCyd2h-D3: 0.745 (2.48) mg/L
DNA methylation
  FdCyd concentration giving inhibition of DNA methylation in vitro: ≥ 1 µM
[3]
  FdCyd bioavailability, previously established: 10%
[3]; intravenously administered FdCyd with THU, ref previous reports
  FdCyd clearance, previous reports: 142 mL/min/m^2
